Tests used:
Experiment in all cases: Kinase inhibitor specificity profiling (Reaction Biology Corporation)
Assay type in all cases: biochemical
[1] = molecular target: T1, panel of 370 protein kinases (Homo sapiens, UniProt P07947); settings: 2 h, kinase YES/YES1; read-out: % Enzyme Activity (relative to DMSO controls)
T1 construct: purchased Reaction Biology Corporation (assay service)

[2] = molecular target: T2, panel of 370 protein kinases (Homo sapiens, UniProt Q13470); settings: 2 h, kinase TNK1; read-out: % Enzyme Activity (relative to DMSO controls)
T2 construct: purchased Reaction Biology Corporation (assay service)

[3] = molecular target: T3, panel of 370 protein kinases (Homo sapiens, UniProt P08922); settings: 2 h, kinase ROS/ROS1; read-out: % Enzyme Activity (relative to DMSO controls)
T3 construct: purchased Reaction Biology Corporation (assay service)

[4] = molecular target: T4, panel of 370 protein kinases (Homo sapiens, UniProt Q9UPZ9); settings: 2 h, kinase LCK2/ICK; read-out: % Enzyme Activity (relative to DMSO controls)
T4 construct: purchased Reaction Biology Corporation (assay service)

[5] = molecular target: T5, panel of 370 protein kinases (Homo sapiens, UniProt Q07002); settings: 2 h, kinase CDK18/cyclin Y (PCTK3); read-out: % Enzyme Activity (relative to DMSO controls)
T5 construct: purchased Reaction Biology Corporation (assay service)

[6] = molecular target: T6, panel of 370 protein kinases (Homo sapiens, UniProt Q14289); settings: 2 h, kinase PYK2; read-out: % Enzyme Activity (relative to DMSO controls)
T6 construct: purchased Reaction Biology Corporation (assay service)

[7] = molecular target: T7, panel of 370 protein kinases (Homo sapiens, UniProt P04049); settings: 2 h, kinase RAF1; read-out: % Enzyme Activity (relative to DMSO controls)
T7 construct: purchased Reaction Biology Corporation (assay service)

[8] = molecular target: T8, panel of 370 protein kinases (Homo sapiens, UniProt Q96KB5); settings: 2 h, kinase PBK/TOPK; read-out: % Enzyme Activity (relative to DMSO controls)
T8 construct: purchased Reaction Biology Corporation (assay service)

[9] = molecular target: T9, panel of 370 protein kinases (Homo sapiens, UniProt P51813); settings: 2 h, kinase BMX/ETK; read-out: % Enzyme Activity (relative to DMSO controls)
T9 construct: purchased Reaction Biology Corporation (assay service)

[10] = molecular target: T10, panel of 370 protein kinases (Homo sapiens, UniProt O15146); settings: 2 h, kinase MUSK; read-out: % Enzyme Activity (relative to DMSO controls)
T10 construct: purchased Reaction Biology Corporation (assay service)

[11] = molecular target: T11, panel of 370 protein kinases (Homo sapiens, UniProt P51817); settings: 2 h, kinase PRKX; read-out: % Enzyme Activity (relative to DMSO controls)
T11 construct: purchased Reaction Biology Corporation (assay service)

[12] = molecular target: T12, panel of 370 protein kinases (Homo sapiens, UniProt Q9P0L2); settings: 2 h, kinase MARK1; read-out: % Enzyme Activity (relative to DMSO controls)
T12 construct: purchased Reaction Biology Corporation (assay service)

[13] = molecular target: T13, panel of 370 protein kinases (Homo sapiens, UniProt Q9H1R3); settings: 2 h, kinase MLCK2/MYLK2; read-out: % Enzyme Activity (relative to DMSO controls)
T13 construct: purchased Reaction Biology Corporation (assay service)

[14] = molecular target: T14, panel of 370 protein kinases (Homo sapiens, UniProt Q15835); settings: 2 h, kinase GRK1; read-out: % Enzyme Activity (relative to DMSO controls)
T14 construct: purchased Reaction Biology Corporation (assay service)

[15] = molecular target: T15, panel of 370 protein kinases (Homo sapiens, UniProt Q8N5S9); settings: 2 h, kinase CAMKK1; read-out: % Enzyme Activity (relative to DMSO controls)
T15 construct: purchased Reaction Biology Corporation (assay service)

[16] = molecular target: T16, panel of 370 protein kinases (Homo sapiens, UniProt P29317); settings: 2 h, kinase EPHA2; read-out: % Enzyme Activity (relative to DMSO controls)
T16 construct: purchased Reaction Biology Corporation (assay service)

[17] = molecular target: T17, panel of 370 protein kinases (Homo sapiens, UniProt P78362); settings: 2 h, kinase SRPK2; read-out: % Enzyme Activity (relative to DMSO controls)
T17 construct: purchased Reaction Biology Corporation (assay service)

[18] = molecular target: T18, panel of 370 protein kinases (Homo sapiens, UniProt P43403); settings: 2 h, kinase ZAP70; read-out: % Enzyme Activity (relative to DMSO controls)
T18 construct: purchased Reaction Biology Corporation (assay service)

[19] = molecular target: T19, panel of 370 protein kinases (Homo sapiens, UniProt P42685); settings: 2 h, kinase FRK/PTK5; read-out: % Enzyme Activity (relative to DMSO controls)
T19 construct: purchased Reaction Biology Corporation (assay service)

[20] = molecular target: T20, panel of 370 protein kinases (Homo sapiens, UniProt P23443); settings: 2 h, kinase p70S6K/RPS6KB1; read-out: % Enzyme Activity (relative to DMSO controls)
T20 construct: purchased Reaction Biology Corporation (assay service)

[21] = molecular target: T21, panel of 370 protein kinases (Homo sapiens, UniProt Q86V86); settings: 2 h, kinase PIM3; read-out: % Enzyme Activity (relative to DMSO controls)
T21 construct: purchased Reaction Biology Corporation (assay service)

T10 sequence (O15146 24-869): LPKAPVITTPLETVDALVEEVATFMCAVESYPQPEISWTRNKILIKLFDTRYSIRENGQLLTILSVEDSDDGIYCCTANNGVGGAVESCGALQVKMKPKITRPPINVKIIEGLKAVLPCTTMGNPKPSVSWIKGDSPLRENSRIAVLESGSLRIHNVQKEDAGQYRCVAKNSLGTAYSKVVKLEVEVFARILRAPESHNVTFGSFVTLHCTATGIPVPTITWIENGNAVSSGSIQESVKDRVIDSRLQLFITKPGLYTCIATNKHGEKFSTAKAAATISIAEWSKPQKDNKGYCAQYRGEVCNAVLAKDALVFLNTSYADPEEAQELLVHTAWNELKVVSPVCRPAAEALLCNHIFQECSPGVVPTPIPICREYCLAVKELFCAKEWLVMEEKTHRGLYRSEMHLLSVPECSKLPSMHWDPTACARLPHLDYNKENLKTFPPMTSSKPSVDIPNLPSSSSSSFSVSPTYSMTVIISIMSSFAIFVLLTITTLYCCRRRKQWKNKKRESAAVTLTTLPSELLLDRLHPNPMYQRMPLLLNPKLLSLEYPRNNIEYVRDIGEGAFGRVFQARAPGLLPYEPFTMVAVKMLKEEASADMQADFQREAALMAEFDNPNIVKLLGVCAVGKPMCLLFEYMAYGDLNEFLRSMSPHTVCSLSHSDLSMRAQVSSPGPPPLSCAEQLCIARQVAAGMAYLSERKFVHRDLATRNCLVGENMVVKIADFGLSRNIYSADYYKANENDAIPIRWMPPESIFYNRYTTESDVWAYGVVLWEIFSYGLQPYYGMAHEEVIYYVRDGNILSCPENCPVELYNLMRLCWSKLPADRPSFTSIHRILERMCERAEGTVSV
T2 sequence (Q13470 whole entry): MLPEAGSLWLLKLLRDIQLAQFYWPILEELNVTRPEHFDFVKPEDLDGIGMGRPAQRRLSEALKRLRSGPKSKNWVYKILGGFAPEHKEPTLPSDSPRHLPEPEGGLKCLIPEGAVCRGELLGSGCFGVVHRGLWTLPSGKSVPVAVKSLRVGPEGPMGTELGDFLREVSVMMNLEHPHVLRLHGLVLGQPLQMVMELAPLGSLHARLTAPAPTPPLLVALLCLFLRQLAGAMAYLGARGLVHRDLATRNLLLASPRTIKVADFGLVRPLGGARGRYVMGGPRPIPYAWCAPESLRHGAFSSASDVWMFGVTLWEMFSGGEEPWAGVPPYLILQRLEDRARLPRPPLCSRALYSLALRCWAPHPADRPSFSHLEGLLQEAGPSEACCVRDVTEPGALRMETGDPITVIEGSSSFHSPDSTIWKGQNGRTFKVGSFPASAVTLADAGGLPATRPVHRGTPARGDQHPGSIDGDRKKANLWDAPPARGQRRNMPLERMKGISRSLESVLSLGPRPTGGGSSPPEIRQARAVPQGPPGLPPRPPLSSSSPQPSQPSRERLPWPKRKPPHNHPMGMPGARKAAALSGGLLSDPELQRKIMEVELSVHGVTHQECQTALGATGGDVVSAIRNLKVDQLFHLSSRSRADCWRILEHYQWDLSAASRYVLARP
T19 sequence (P42685 whole entry): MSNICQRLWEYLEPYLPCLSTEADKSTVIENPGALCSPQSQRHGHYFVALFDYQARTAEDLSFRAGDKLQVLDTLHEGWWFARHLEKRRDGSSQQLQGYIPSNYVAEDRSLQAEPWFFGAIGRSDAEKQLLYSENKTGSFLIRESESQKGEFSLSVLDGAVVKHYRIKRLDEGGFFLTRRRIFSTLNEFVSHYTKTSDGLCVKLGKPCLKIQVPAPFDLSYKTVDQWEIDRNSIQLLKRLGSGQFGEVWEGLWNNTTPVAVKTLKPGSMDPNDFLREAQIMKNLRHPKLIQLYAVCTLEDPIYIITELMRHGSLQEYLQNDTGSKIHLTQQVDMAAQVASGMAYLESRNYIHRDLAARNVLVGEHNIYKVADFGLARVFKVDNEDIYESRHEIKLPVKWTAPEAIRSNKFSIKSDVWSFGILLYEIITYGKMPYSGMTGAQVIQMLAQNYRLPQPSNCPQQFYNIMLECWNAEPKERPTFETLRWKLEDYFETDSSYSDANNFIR
T14 sequence (Q15835 whole entry): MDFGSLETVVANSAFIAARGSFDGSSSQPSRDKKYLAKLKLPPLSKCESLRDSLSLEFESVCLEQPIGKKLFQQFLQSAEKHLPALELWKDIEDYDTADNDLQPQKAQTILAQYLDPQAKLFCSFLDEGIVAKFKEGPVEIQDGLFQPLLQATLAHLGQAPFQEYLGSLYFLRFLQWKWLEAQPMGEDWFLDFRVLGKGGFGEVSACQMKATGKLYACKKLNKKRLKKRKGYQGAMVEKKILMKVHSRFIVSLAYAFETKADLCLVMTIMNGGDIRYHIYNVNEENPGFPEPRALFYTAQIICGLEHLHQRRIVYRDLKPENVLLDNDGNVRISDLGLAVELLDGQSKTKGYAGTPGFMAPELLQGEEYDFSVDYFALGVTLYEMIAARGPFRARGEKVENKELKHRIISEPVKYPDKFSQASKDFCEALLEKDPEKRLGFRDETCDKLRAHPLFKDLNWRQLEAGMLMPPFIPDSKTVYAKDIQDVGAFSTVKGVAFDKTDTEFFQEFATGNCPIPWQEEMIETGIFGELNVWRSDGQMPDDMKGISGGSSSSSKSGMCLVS
T18 sequence (P43403 whole entry): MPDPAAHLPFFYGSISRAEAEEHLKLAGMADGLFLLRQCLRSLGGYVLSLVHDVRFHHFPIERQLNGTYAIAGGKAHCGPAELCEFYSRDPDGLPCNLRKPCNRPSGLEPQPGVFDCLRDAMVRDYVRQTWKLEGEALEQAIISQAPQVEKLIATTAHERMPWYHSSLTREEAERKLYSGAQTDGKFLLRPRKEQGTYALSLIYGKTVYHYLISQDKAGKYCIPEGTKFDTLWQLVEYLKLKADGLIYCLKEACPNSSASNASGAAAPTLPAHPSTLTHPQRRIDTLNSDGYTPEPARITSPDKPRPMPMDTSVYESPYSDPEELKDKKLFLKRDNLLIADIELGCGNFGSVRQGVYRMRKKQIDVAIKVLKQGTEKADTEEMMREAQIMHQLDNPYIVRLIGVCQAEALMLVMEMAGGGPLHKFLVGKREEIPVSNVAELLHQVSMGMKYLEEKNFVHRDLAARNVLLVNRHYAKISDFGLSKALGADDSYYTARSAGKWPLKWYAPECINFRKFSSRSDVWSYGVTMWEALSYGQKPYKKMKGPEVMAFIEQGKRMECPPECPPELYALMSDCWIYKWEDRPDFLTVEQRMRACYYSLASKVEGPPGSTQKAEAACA
T8 sequence (Q96KB5 whole entry): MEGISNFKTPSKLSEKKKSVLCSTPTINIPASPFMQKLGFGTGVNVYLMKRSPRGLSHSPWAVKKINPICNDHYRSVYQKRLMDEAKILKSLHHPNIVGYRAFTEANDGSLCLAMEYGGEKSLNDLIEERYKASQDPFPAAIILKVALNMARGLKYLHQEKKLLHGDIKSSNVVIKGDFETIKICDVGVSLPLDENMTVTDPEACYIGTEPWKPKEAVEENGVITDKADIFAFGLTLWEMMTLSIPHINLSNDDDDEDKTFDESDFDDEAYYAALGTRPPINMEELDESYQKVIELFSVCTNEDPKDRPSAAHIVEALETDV
T13 sequence (Q9H1R3 whole entry): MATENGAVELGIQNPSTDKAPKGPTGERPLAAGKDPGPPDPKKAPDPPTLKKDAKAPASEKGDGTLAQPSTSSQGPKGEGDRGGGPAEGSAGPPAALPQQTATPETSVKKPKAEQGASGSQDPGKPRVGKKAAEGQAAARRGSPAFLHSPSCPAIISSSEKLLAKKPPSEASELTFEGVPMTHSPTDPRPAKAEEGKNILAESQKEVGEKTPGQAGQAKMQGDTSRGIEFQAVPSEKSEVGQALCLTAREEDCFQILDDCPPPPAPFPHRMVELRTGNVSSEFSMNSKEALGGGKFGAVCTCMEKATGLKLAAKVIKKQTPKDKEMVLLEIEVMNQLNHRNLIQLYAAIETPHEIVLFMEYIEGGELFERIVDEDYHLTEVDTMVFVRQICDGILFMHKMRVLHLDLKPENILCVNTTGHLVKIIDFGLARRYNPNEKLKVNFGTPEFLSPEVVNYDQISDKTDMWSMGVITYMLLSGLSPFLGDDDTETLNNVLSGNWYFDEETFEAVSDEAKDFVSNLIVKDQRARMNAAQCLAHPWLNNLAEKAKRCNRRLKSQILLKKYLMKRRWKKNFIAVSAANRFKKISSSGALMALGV
T17 sequence (P78362 whole entry): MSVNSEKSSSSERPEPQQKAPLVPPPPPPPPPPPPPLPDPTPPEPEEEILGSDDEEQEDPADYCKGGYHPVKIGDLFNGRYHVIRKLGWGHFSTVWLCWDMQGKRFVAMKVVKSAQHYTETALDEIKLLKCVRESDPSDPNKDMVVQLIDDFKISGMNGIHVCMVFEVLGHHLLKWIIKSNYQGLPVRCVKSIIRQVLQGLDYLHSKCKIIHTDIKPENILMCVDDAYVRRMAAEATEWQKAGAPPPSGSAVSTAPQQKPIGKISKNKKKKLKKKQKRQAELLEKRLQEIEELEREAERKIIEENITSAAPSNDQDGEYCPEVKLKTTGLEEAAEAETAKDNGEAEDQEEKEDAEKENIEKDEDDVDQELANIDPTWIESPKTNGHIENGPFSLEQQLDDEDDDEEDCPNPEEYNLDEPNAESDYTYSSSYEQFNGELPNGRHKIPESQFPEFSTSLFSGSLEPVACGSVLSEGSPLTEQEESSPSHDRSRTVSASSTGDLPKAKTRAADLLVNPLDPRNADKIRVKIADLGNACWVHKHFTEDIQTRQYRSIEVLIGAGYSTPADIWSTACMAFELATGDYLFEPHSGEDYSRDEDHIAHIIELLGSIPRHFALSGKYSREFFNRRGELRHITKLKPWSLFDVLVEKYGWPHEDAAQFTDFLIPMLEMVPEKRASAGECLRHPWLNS

SMILES: CCN1CCN(C(=O)c2ccc(Nc3ncc(F)c(-c4ccc5nc(N(C)C)sc5c4)n3)nc2)CC1 [YK-2-69]
- remaining activity at 1 µM [1]: 108%
- remaining activity at 1 µM [2]: 95.3%
- remaining activity at 1 µM [3]: 79.3%
- remaining activity at 1 µM [4]: 99.2%
- remaining activity at 1 µM [5]: 99.1%
- remaining activity at 1 µM [6]: 110%
- remaining activity at 1 µM [7]: 106%
- remaining activity at 1 µM [8]: 108%
- remaining activity at 1 µM [9]: 80.6%
- remaining activity at 1 µM [10]: 89.2%
- remaining activity at 1 µM [11]: 95.1%
- remaining activity at 1 µM [12]: 88%
- remaining activity at 1 µM [13]: 78.7%
- remaining activity at 1 µM [14]: 97.2%
- remaining activity at 1 µM [15]: 95.7%
- remaining activity at 1 µM [16]: 103%
- remaining activity at 1 µM [17]: 89.3%
- remaining activity at 1 µM [18]: 87.8%
- remaining activity at 1 µM [19]: 108%
- remaining activity at 1 µM [20]: 99.7%
- remaining activity at 1 µM [21]: 55.8%

— article PMC9133015 (Nature Communications, 2022)
